Experimental data reported in patent publication US20210106650A1, “MICROBICIDAL COMPOSITIONS AND METHODS FOR TREATMENT OF VIRAL INFECTIONS” (University of Louisville Research Foundation, Inc., priority 2015, published 2021).
Values after ≈ are worked out from the molar mass of the structure shown. Counter-ions that a name gives are not always drawn. Like-named read-outs stand apart in the source and are kept apart here.

What was measured:
[1] = tested on: HIV-1 pseudovirus (CCR5-using clade A strain Q769.h5); details: same virus strain (Q769.h5); cited from earlier work
HIV-1BaL = assay: HIV-1 infection of polarized ectocervical tissue explants; assay type: cell-based, human
HSV-2 [2] = details: in vitro; read-out: cell-dependent EC50; cited from earlier work
HIV-1 isolates = details: most HIV-1 isolates; cited from earlier work
HSV-2 [3] = details: in vivo; cited from earlier work
[4] = tested on: HIV-1-enveloped pseudovirus; details: subcutaneous administration in mice; cited from earlier work
[5] = tested on: HIV-1 pseudovirus (CCR5-using clade A strain Q769.h5); assay: Env-pseudotyped virus infectivity assay in TZM-bl cells (luciferase); assay type: cell-based; details: similar administration durations
Description: Materials. Carboxyl-terminated 50:50 poly(lactic-co-glycolic acid) (PLGA, 0.55-0.75 dL/g, 31-57 k MW) was purchased from Lactel Absorbable Polymers (Cupertino, Calif.). Dichloromethane (DCM), dimethyl sulfoxide (DMSO), and the MTT assay kit were obtained from Sigma Aldrich (St Louis, Mo.). 1,1,1,3,3,3-hexafluoro-2-propanol (HFIP) was obtained from Fisher Scientific (Pittsburgh, Pa.). GRFT (MW 12.7 kDa) was produced in Nicotiana benthamiana as previously reported. Fetal bovine serum (FBS) and antibiotics (penicillin/streptomycin) were purchased from VWR. Dulbecco's modified Eagle's medium (DMEM) and keratinocyte serum-free medium were purchased from Invitrogen. The EDC-NHS and enzyme-linked immunosorbent assay (ELISA) kits were purchased from ThermoFisher. Simulated vaginal fluid (SVF) was prepared as described previously. […]
Cell lines. […] Vaginal keratinocyte, VK2/E6E7 (VK2); ectocervical, Ect1/E6E7 (Ect1); and endocervical, End1/E6E7 (End1) cell lines, obtained from ATCC, were evaluated in cytotoxicity experiments. […]
In vitro antiviral activity of GRFT-EFs. […] The anti-HIV activity of the GRFT-EFs was measured as a reduction in firefly luciferase (Luc) reporter gene expression in the presence of GRFT-EFs compared to unmodified EFs after a single round of infection in TZM-bl cells. […]

HIV-1 = assay: Env-pseudotyped virus infectivity assay of TDF EFs in TZM-bl cells; assay type: cell-based; details: EFs given 1 and 24 hr before infection
Procedure: A reporter gene expression Env-pseudotyped virus infectivity assay was used, as described previously, to measure the HIV-1 antiviral activity of the TDF PLGA and PLCL EFs. Antiviral activity was measured as a reduction in firefly Luciferase (Luc) reporter gene expression after administration of different EF concentrations 1 and 24 hr before a single round of infection in TZM-bl cells (i.e., the engineered HeLa cell clone that stably expresses CD4, CCR5, and CXCR4 receptors and contains HIV-1 Tat-regulated reporter genes for firefly luciferase and B-galactosidase). One set of 8 control wells received only cells plus virus (virus control), and another set of 8 wells received cells only (background control). After 48 hr incubation, culture medium was removed from each well, an equal volume of Bright-Glo™ reagent was added, and luminescence was measured. The EC50 was determined as the TDF-EF concentration that caused a 50% reduction in RLU relative to virus control wells after subtraction of background RLU (FIG. 14).

HSV-2 [6] = assay: HSV-2 plaque assay in Vero E6 cells with EF eluants; assay type: cell-based
Procedure: Initially, experiments were undertaken to determine the in vitro efficacy of unmodified EFs that encapsulated antivirals (ACV and TDF) or are surface-modified with GRFT, against HSV-2 infection. […] The top row of each plate contained cells that were incubated with blank PLGA or PLCL EFs. […] After infection, cells were incubated with IgG to neutralize free HSV-2, and EF eluants were administered to Vero E6 cells. Appropriate controls of: [no treatment/no virus], [no treatment/virus], [blank PLGA or PLCL EFs, virus], and [free ACV, virus] were conducted. […] Similarly, fibers were assessed after 28 days to ensure bioactivity after one month in SVF. […] Only one of the three IC50 curves is shown for each in FIG. 13 for purposes of brevity.

griffithsin [free GRFT]
previous literature measurement for free GRFT [1]: 157 ng/mL | block of HIV-1 infection in ectocervical explants (HIV-1BaL): blocks HIV-1 infection | concentration down to which HIV-1 infection was blocked (HIV-1BaL; ectocervical tissue, 10^4 TCID50 HIV-1BaL overnight, 21 days culture): 10 µM | EC50 (HSV-2 [2]): 2.3 to 143 µM | in vitro inhibitory activity (EC50) (HIV-1 isolates): mid-pM to low-nM range | HSV-2 cell entry (HSV-2 [3]): modestly inhibited | HSV-2 cell-to-cell spread (HSV-2 [3]): completely inhibiting | antiviral activity of serum from treated animals [4]: retained antiviral activity | IC50 of free GRFT [5]: 233±2.7 ng GRFT/mL

CC(C)OC(=O)OCOP(=O)(CO[C@H](C)Cn1cnc2c(N)ncnc21)OCOC(=O)OC(C)C [free TDF, tenofovir disoproxil fumarate]
protection against HIV-1 (HIV-1): complete protection against HIV-1

Nc1nc2c(ncn2COCCO)c(=O)[nH]1 [free ACV, acyclovir]
IC50 (HSV-2 [6]; Human alphaherpesvirus 2, Vero C1008, 72 h, fiber eluant collected after 3 days, read-out: average IC50): 0.287 µg/mL (≈ 1.27 µM) | IC50 (HSV-2 [6]; Human alphaherpesvirus 2, Vero C1008, 672 h, after 28 days in SVF, read-out: IC50): 0.293 µg/mL (≈ 1.3 µM) | IC50 (HSV-2 [6]; Human alphaherpesvirus 2, Vero C1008, eluant released between 21 and 28 days, read-out: IC50): 0.293 µg/mL (≈ 1.3 µM)
